Data as given in patent publication US10533010B2, “Substituted indole Mcl-1 inhibitors” (Vanderbilt University, priority 2014, dated 2020).
Like-named read-outs stand apart in the source and are kept apart here.

Target: recombinant Mcl-1 (residues 172-327) (Homo sapiens (Human), UniProt Q07820)
Assay: Fluorescence polarization anisotropy competition assay (FITC-Bak or FITC-Bim BH3 peptide) with Mcl-1
Format: binding
[1] = Table 2, Ki bins given in nM, FITC-Bak or FITC-Bim peptide competition, Ki converted from IC50, read-out: Ki for Inhibition of Mcl-1
[2] = Table 2, Ki bins given in μM, FITC-Bak or FITC-Bim peptide competition, Ki converted from IC50, read-out: Ki for Inhibition of Mcl-1

Sequence of recombinant Mcl-1 (residues 172-327) (Q07820 172-327): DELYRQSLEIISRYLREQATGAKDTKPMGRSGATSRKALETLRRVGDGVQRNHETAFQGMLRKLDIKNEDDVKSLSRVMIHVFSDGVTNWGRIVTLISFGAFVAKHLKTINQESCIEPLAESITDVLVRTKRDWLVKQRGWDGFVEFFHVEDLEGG

| Structure (SMILES) | Ki [1] [nM] | also measured |
| --- | --- | --- |
| Cc1cc(OCCCc2c(C(=O)NCC(=O)N[C@@H](CC(C)C)C(=O)O)[nH]c3c(-c4c(C)nn(C)c4C)cccc23)cc(C)c1Cl [I-292, (3-(3-(4-chloro-3,5-dimethylphenoxy)propyl)-7-(1,3,5-trimethyl-1H-pyrazol-4-yl)-1H-indole-2-carbonyl)glycyl-L-leucine] | < 50 |  |
| Cc1cc(OCCCc2c(C(=O)Nc3cccc(CC(=O)O)c3)[nH]c3c(-c4c(C)nn(C)c4C)cccc23)cc(C)c1Cl [I-206, 2-(3-(3-(3-(4-chloro-3,5-dimethylphenoxy)propyl)-7-(1,3,5-trimethyl-1H-pyrazol-4-yl)-1H-indole-2-carboxamido)phenyl)acetic acid] | < 50 |  |
| CCOC(=O)c1ccc(CNC(=O)c2[nH]c3c(-c4c(C)nn(C)c4C)cccc3c2CCCOc2cc(C)c(Cl)c(C)c2)o1 [I-266, ethyl 5-((3-(3-(4-chloro-3,5-dimethylphenoxy)propyl)-7-(1,3,5-trimethyl-1H-pyrazol-4-yl)-1H-indole-2-carboxamido)methyl)furan-2-carboxylate] |  | Ki [2]: 10000 to 50000 nM |
| Cc1cc(OCCCc2c(C(=O)N3CCN(c4ccc(C(=O)O)cc4)CC3)[nH]c3cc(Cl)ccc23)cc(C)c1Cl [I-51, 4-(4-(6-chloro-3-(3-(4-chloro-3,5-dimethylphenoxy)propyl)-1H-indole-2-carbonyl)piperazin-1-yl)benzoic acid] |  | Ki [2]: 1000 to 9990 nM |
| Cc1cc(OCCCc2c(C(=O)NCC(=O)O)[nH]c3ccccc23)cc(C)c1Cl [I-3, (3-(3-(4-chloro-3,5-dimethylphenoxy)propyl)-1H-indole-2-carbonyl)glycine] |  | Ki: 501 to 999 nM |
| Cc1cc(OCCCc2c(C(=O)NCc3ccc(C(=O)O)o3)[nH]c3ccccc23)cc(C)c1Cl [I-57, 5-((3-(3-(4-chloro-3,5-dimethylphenoxy)propyl)-1H-indole-2-carboxamido)methyl)furan-2-carboxylic acid] |  | Ki: 51 to 100 nM |
| Cc1cc(OCCCc2c(C(=O)NCc3ccc(C(=O)O)o3)n(C)c3c(-c4c(C)nn(C)c4C)cccc23)cc(C)c1Cl [I-66, 5-((3-(3-(4-chloro-3,5-dimethylphenoxy)propyl)-1-methyl-7-(1,3,5-trimethyl-1H-pyrazol-4-yl)-1H-indole-2-carboxamido)methyl)furan-2-carboxylic acid] | < 50 | Ki [2]: 10000 to 50000 nM |
| Cc1cc(OCCCc2c(C(=O)NCCC(=O)NS(=O)(=O)c3ccccc3C#N)[nH]c3ccccc23)cc(C)c1Cl [I-18, 3-(3-(4-chloro-3,5-dimethylphenoxy)propyl)-N-(3-((2-cyanophenyl)sulfonamido)-3-oxopropyl)-1H-indole-2-carboxamide] | 301 to 500 |  |
| Cc1cc(OCCCc2c(C(=O)N(C)c3cccc(C(=O)O)c3)[nH]c3c(-c4c(C)nn(C)c4C)cccc23)cc(C)c1Cl [I-197, 3-(3-(3-(4-chloro-3,5-dimethylphenoxy)propyl)-N-methyl-7-(1,3,5-trimethyl-1H-pyrazol-4-yl)-1H-indole-2-carboxamido)benzoic acid] | < 50 |  |
| Cc1cc(OCCCc2c3n(c4c(-c5c(C)nn(C)c5C)c(Cl)ccc24)[C@H](C)CN(Cc2ccc(C(=O)O)o2)C3=O)cc(C)c1Cl [I-152, (R)-5-((7-chloro-10-(3-(4-chloro-3,5-dimethylphenoxy)propyl)-4-methyl-1-oxo-6-(1,3,5-trimethyl-1H-pyrazol-4-yl)-3,4-dihydropyrazino[1,2-a]indol-2(1H)-yl)methyl)furan-2-carboxylic acid] | < 50 |  |
| COC(=O)c1cccc(N2CCN(C(=O)c3[nH]c4cc(Cl)ccc4c3CCCOc3cc(C)c(Cl)c(C)c3)CC2)c1 [I-52, methyl 3-(4-(6-chloro-3-(3-(4-chloro-3,5-dimethylphenoxy)propyl)-1H-indole-2-carbonyl)piperazin-1-yl)benzoate] | 501 to 999 |  |
| Cc1cc(OCCCc2c(C(=O)Nc3cc(C(=O)O)cc(N(C)CCN(C)C)c3)[nH]c3c(-c4c(C)nn(C)c4C)c(Cl)ccc23)cc(C)c1Cl [I-210, 3-(6-chloro-3-(3-(4-chloro-3,5-dimethylphenoxy)propyl)-7-(1,3,5-trimethyl-1H-pyrazol-4-yl)-1H-indole-2-carboxamido)-5-((2-(dimethylamino)ethyl)(methyl)amino)benzoic acid] | < 50 |  |

Second part, led by results:

| Ki [1] [nM] | Structure (SMILES) | also measured |
| --- | --- | --- |
| < 50 | Cc1cc(OCCCc2c3n(c4c(-c5c(C)nn(C)c5C)c(Cl)ccc24)CCCN(c2cccc(C(=O)NS(=O)(=O)C4CC4)c2)C3=O)cc(C)c1Cl [I-369, 3-(8-chloro-11-(3-(4-chloro-3,5-dimethylphenoxy)propyl)-1-oxo-7-(1,3,5-trimethyl-1H-pyrazol-4-yl)-4,5-dihydro-H-[1,4]diazepino[1,2-a]indol-2(3H)-yl)-N-(cyclopropylsulfonyl)benzamide] |  |
| < 50 | Cc1cc(OCCCc2c3n(c4c(-c5c(C)nn(C)c5C)c(Cl)ccc24)CCCN(c2cccc(C(=O)NS(C)(=O)=O)c2)C3=O)cc(C)c1Cl [I-368, 3-(8-chloro-11-(3-(4-chloro-3,5-dimethylphenoxy)propyl)-1-oxo-7-(1,3,5-trimethyl-1H-pyrazol-4-yl)-4,5-dihydro-H-[1,4]diazepino[1,2-a]indol-2(3H)-yl)-N-(methylsulfonyl)benzamide] |  |
| < 50 | Cc1cc(OCCCc2c(C(=O)N(C)c3cccc(C(=O)O)c3)[nH]c3c(-c4c(C)nn(C)c4C)c(Cl)ccc23)cc(C)c1Cl [I-187, 3-(6-chloro-3-(3-(4-chloro-3,5-dimethylphenoxy)propyl)-N-methyl-7-(1,3,5-trimethyl-1H-pyrazol-4-yl)-1H-indole-2-carboxamido)benzoic acid] |  |
| < 50 | Cc1cc(OCCCc2c3n(c4c(-c5c(C)nn(C)c5C)c(Cl)ccc24)CCCN(c2ccc4ccn(C)c4c2)C3=O)cc(C)c1Cl [I-248, 8-chloro-1-(3-(4-chloro-3,5-dimethylphenoxy)propyl)-2-(1-methyl-1H-indol-6-yl)-7-(1,3,5-trimethyl-1H-pyrazol-4-yl)-2,3,4,5-tetrahydro-1H-[1,4]diazepino[1,2-a]indol-1-one] |  |
| < 50 | Cc1cc(OCCCc2c(C(=O)N3CCN(c4ccc(C(=O)O)cc4)CC3)n(C)c3c(-c4c(C)nn(C)c4C)c(Cl)ccc23)cc(C)c1Cl [I-339, 4-(4-(6-chloro-3-(3-(4-chloro-3,5-dimethylphenoxy)propyl)-1-methyl-7-(1,3,5-trimethyl-1H-pyrazol-4-yl)-1H-indole-2-carbonyl)piperazin-1-yl)benzoic acid] |  |
| < 50 | Cc1cc(OCCCc2c3n(c4c(-c5c(C)nn(C)c5C)c(Cl)ccc24)CCCN(c2cc(C(=O)O)cc4c2c(Cl)cn4C)C3=O)cc(C)c1Cl [I-255, 3-chloro-4-(8-chloro-11-(3-(4-chloro-3,5-dimethylphenoxy)propyl)-1-oxo-7-(1,3,5-trimethyl-1H-pyrazol-4-yl)-4,5-dihydro-1H-[1,4]diazepino[1,2-a]indol-2(3H)-yl)-1-methyl-1H-indole-6-carboxylic acid] |  |
| < 50 | CCn1ccc2c(N3CCCn4c(c(CCCOc5cc(C)c(Cl)c(C)c5)c5ccc(Cl)c(-c6c(C)nn(C)c6C)c54)C3=O)cc(C(=O)O)cc21 [I-249, 4-(8-chloro-11-(3-(4-chloro-3,5-dimethylphenoxy)propyl)-1-oxo-7-(1,3,5-trimethyl-1H-pyrazol-4-yl)-4,5-dihydro-1H-[1,4]diazepino[1,2-a]indol-2(3H)-yl)-1-ethyl-1H-indole-6-carboxylic acid] |  |
| < 50 | Cc1cc(OCCCc2c3n(c4c(-c5c(C)nn(C)c5C)c(Cl)ccc24)CCCN(c2ccc(CC(=O)O)cc2)C3=O)cc(C)c1Cl [I-237, 2-(4-(8-chloro-11-(3-(4-chloro-3,5-dimethylphenoxy)propyl)-1-oxo-7-(1,3,5-trimethyl-1H-pyrazol-4-yl)-4,5-dihydro-H-[1,4]diazepino[1,2-a]indol-2(3H)-yl)phenyl)acetic acid] |  |
| < 50 | Cc1cc(OCCCc2c3n(c4c(-c5c(C)nn(C)c5C)c(Cl)ccc24)CCCN(Cc2cc(C(=O)O)c(C)o2)C3=O)cc(C)c1Cl [I-347, 5-((8-chloro-1-(3-(4-chloro-3,5-dimethylphenoxy)propyl)-1-oxo-7-(1,3,5-trimethyl-1H-pyrazol-4-yl)-4,5-dihydro-1H-[1,4]diazepino[1,2-a]indol-2(3H)-yl)methyl)-2-methylfuran-3-carboxylic acid] |  |
| < 50 | Cc1cc(OCCCc2c3n(c4c(-c5c(C)nn(C)c5C)c(Cl)ccc24)CC(C)CN(Cc2cccc(C(=O)O)c2)C3=O)cc(C)c1Cl (centres unmarked) [I-135, 3-((8-chloro-11-(3-(4-chloro-3,5-dimethylphenoxy)propyl)-4-methyl-1-oxo-7-(1,3,5-trimethyl-1H-pyrazol-4-yl)-4,5-dihydro-1H-[1,4]diazepino[1,2-a]indol-2(3H)-yl)methyl)benzoic acid] |  |
| < 50 | Cc1cc(OCCCc2c3n(c4c(-c5c(C)nn(C)c5C)c(Cl)ccc24)CCCN(c2cc(CN4CCCC4)cc(C(=O)O)c2)C3=O)cc(C)c1Cl [I-225, 3-(8-chloro-11-(3-(4-chloro-3,5-dimethylphenoxy)propyl)-1-oxo-7-(1,3,5-trimethyl-1H-pyrazol-4-yl)-4,5-dihydro-1H-[1,4]diazepino[1,2-a]indol-2(3H)-yl)-5-(pyrrolidin-1-ylmethyl)benzoic acid] |  |
| < 50 | Cc1cc(OCCCc2c3n(c4c(-c5c(C)nn(C)c5C)c(Cl)ccc24)CCCN(c2cccc(-c4nn[nH]n4)c2)C3=O)cc(C)c1Cl [I-354, 2-(3-(2H-tetrazol-5-yl)phenyl)-8-chloro-1-(3-(4-chloro-3,5-dimethylphenoxy)propyl)-7-(1,3,5-trimethyl-1H-pyrazol-4-yl)-2,3,4,5-tetrahydro-1H-[1,4]diazepino[1,2-a]indol-1-one] |  |
| < 50 | Cc1cc(OCCCc2c3n(c4c(-c5c(C)nn(C)c5C)c(Cl)ccc24)CCCN(Cc2ccc(C(=O)O)cn2)C3=O)cc(C)c1Cl [I-102, 6-((8-chloro-11-(3-(4-chloro-3,5-dimethylphenoxy)propyl)-1-oxo-7-(1,3,5-trimethyl-1H-pyrazol-4-yl)-4,5-dihydro-1H-[1,4]diazepino[1,2-a]indol-2(3H)-yl)methyl)nicotinic acid] |  |
